“Also recorded” adds a separate entry of the source.
Assays:
Type in all cases: physicochemical
[1] = Suspension competition experiment between the crystalline forms in solution; settings: equal amount of forms A/B in saturated solution of isopropyl alcohol and water, room temperature, stirring 2 days
Method: The transformation relationship between the crystalline forms was studied by a suspension competition experiment in the solution. The suspension competition between the crystalline form A and the crystalline form B was carried out at room temperature. The crystalline form A was obtained by adding equal amount of the crystalline form A/B to the saturated solution of isopropyl alcohol and water with suspending and stirring for 2 days.

[2] = Stability assessment of the crystalline form A (solid, accelerated and 12 months)
Source text: The “stability” described in the present invention refers to that neither degradation of the crystalline form has been found nor transformation to other crystalline form has been detected in the determination of the crystalline form by analytical means such as LC detection, XRPD, etc.
The solid sample of crystalline form A was exposed to high temperature, high humidity and light (open) for au one month accelerated stability study to observe the purity of the sample and the stability of the crystalline form.
The solid sample of crystalline form A was placed under the 30° C./65% RH (closed) for a 12 months stability study to observe the purity of the sample and the stability of the crystalline form (XRPD pattern).

[3] = Hygroscopicity assessment by dynamic vapor sorption (DVS); settings: 25° C.
Method: The “hygroscopicity” described in the present invention refers to the characteristic of the substance's ability or degree of absorbing water under the conditions of certain temperature and humidity. Regarding to the characteristic description of hygroscopicity and the definition of hygroscopic weight gain (performing experiments according to the method of guideline 9103 of Pharmacopoeia of the People's Republic of China (2015) Volume IV. experimental conditions: 25° C.±1° C., 80%±2% of relative humidity):
deliquescence: sufficient water absorption to form a solution; very hygroscopic: hygroscopic weight gain of not less than 15%; phygroscopic: hygroscopic weight gain of less than 15% but not less than 2%; slightly hygroscopic: hygroscopic weight gain of less than 2% but not less than 0.2%; not or almost not hygroscopic: hygroscopic weight gain of less than 0.2%.
The dynamic vapor sorption (DVS) diagram described in the present invention was acquired using an Intrinsic dynamic vapor sorption instrument produced by SMS (Surface Measurement Systems Ltd.). The method parameters of the dynamic vapor sorption described in the present invention are as follows: […]
About 30 mg of the crystalline form A of the present invention was taken and subjected to a dynamic vapor sorption test using a dynamic vapor sorption (DVS). […] The XRPD was measured before and after the test.

[4] = 12 months, 30° C./65% RH (closed)
[5] = Acceleration for 1 month (25° C., 90% ± 5% RH), open
[6] = Acceleration for 1 month (60° C.), open
[7] = Acceleration for 13 days (10 days of light exposure, 3 days of UV exposure), open

C[C@H]1CNC(=O)Nc2cnn3ccc(nc23)N2C[C@@H](F)C[C@@H]2c2cc(F)cnc2O1 [crystalline form B, (2^2R,2^4S,5S)-2^4,3^5-difluoro-5-methyl-4-oxa-7,9-diaza-1(5,3)-pyrazolo[1,5-a]pyrimidin-3(3,2)-pyridin-2(1,2)-pyrrolidincyclononan-8-one]
Thermodynamic stability / transformation in suspension competition [1]: can be transformed into the crystalline form A

C[C@H]1CNC(=O)Nc2cnn3ccc(nc23)N2C[C@@H](F)C[C@@H]2c2cc(F)cnc2O1 [crystalline form A, (2^2R,2^4S,5S)-2^4,3^5-difluoro-5-methyl-4-oxa-7,9-diaza-1(5,3)-pyrazolo[1,5-a]pyrimidin-3(3,2)-pyridin-2(1,2)-pyrrolidincyclononan-8-one]
Purity (%) ([2]; 0 month (start of stability study)): 98.9%
Crystalline form (XRPD) [2, 4]: Unchanged
Purity (%) [2, 4]: 99.4%
Stability (conclusion in words) ([2]; 60° C. 1 month, 25° C./90%±5% RH 1 month, light 13 days, 30° C./65% RH 12 months): stable state; also recorded: good stability
Crystalline form (XRPD) [2, 5]: Unchanged
Purity (%) [2, 5]: 98.5%
Crystalline form (XRPD) [2, 6]: Unchanged
Purity (%) [2, 6]: 98.3%
Crystalline form (XRPD) [2, 7]: Unchanged
Purity (%) [2, 7]: 99.4%
Crystalline form before and after DVS test (XRPD) ([3]; 0% RH to 95% RH): remained unchanged
Weight gain (DVS) ([3]; 80% relative humidity): 0.46%
Thermodynamic stability / transformation in suspension competition [1]: better thermodynamic stability
